Patent publication US20210198277A1, “AMINE-SUBSTITUTED ARYL OR HETEROARYL COMPOUNDS” (Epizyme, Inc., priority 2016, published 2021)

Assays:
human EHMT2 913-1193 = target: T1, human EHMT2 913-1193 (Homo sapiens, UniProt Q96KQ7); experiment: EHMT2 enzyme assay on histone peptide substrate (EHMT2 PEP); format: biochemical; settings: recombinant human EHMT2 913-1193, histone H3 1-15 peptide, balanced conditions; read-out: EHMT2 PEP (IC50 μM)
T1 construct: recombinant purified human EHMT2 913-1193, Viva; purchased Viva
T1 sequence (Q96KQ7 913-1193): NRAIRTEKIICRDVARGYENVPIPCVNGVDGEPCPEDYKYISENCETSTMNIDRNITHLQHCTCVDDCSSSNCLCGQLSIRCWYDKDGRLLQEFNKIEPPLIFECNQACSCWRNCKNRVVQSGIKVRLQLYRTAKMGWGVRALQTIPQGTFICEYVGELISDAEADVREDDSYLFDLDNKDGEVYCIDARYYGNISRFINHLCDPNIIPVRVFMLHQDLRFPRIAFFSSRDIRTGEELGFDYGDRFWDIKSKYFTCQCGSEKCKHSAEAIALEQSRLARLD
Outline: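 Inhibition is measured as reduced tritium incorporation into a biotinylated histone peptide from ^3H-SAM. The enzyme (0.031 nM) sees compound for 30 minutes before a 60-minute room-temperature reaction, which unlabeled SAM quenches prior to streptavidin Flashplate capture.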

EHMT1 = target: T2, EHMT1 (Homo sapiens, UniProt Q9H9B1); experiment: EHMT1 enzyme assay on peptide substrate (EHMT1 PEP); format: biochemical; settings: read-out: EHMT1 PEP (IC50 μM)
T2 sequence (Q9H9B1 1-1298): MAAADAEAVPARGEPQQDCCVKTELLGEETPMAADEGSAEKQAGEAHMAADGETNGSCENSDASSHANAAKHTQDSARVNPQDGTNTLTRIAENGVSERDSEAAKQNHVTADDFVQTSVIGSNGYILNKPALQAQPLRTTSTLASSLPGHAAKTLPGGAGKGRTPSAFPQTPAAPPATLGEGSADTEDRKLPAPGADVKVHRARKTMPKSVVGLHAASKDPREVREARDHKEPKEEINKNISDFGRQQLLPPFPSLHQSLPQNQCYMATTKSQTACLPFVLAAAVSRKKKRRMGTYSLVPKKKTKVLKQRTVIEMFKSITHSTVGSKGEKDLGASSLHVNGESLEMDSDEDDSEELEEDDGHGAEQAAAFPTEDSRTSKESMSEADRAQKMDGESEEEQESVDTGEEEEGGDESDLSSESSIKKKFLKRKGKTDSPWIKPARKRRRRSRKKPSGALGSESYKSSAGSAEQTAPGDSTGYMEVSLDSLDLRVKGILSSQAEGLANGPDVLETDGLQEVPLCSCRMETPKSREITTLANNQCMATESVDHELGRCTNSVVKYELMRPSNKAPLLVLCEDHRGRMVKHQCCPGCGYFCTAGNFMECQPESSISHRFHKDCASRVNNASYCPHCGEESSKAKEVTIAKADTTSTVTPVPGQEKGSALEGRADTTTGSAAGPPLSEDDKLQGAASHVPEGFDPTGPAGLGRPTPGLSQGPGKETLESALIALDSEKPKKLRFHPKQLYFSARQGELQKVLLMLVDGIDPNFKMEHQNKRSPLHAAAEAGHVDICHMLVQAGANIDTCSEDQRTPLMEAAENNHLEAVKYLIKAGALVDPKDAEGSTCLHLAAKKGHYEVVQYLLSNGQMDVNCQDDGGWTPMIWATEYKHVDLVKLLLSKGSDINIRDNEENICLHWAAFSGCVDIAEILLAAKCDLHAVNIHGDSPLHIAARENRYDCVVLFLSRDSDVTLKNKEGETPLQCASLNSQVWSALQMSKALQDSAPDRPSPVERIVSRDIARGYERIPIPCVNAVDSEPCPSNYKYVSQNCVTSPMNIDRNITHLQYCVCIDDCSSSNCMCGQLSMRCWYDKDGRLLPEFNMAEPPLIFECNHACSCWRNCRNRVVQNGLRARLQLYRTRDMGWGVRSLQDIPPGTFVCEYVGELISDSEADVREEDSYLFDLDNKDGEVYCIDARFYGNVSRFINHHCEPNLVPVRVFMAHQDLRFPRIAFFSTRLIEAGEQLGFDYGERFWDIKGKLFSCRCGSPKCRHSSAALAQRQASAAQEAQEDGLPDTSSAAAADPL

IC50 (human EHMT2 913-1193) [µM] | IC50 (EHMT1) [µM] | Compound
< 0.1 | < 0.1 | CNc1cc(C)nc(Nc2ccc(OC)c(OC[C@@H]3CCN(C4CC4)C3)c2)n1 (single isomer, unassigned) [Compound 481]
0.1 to 1 | 0.1 to 1 | CNc1cc(C)nc(Nc2ccc(OC)c(OC[C@H]3CCN(C4CC4)C3)c2)n1 (single isomer, unassigned) [Compound 482]
> 10 | > 10 | CNc1ccnc(Nc2ccc(OC)c(OCCOC3CC3)c2)n1 [Compound 453, N^2-(3-(2-cyclopropoxyethoxy)-4-methoxyphenyl)-N^4-methylpyrimidine-2,4-diamine]
> 10 | > 10 | CNc1cc(C)nc(Nc2ccc(OC)c(OC3CCN(C)CC3)c2)n1 [Compound 455]
1 to 10 | 1 to 10 | CNc1cc(C)nc(Nc2ccc(OC)c(OCC3CCN(C4CCCC4)C3)c2)n1 (stereo not shown) [Compound 456, N^2-(3-((1-cyclopentylpyrrolidin-3-yl)methoxy)-4-methoxyphenyl)-N^4,6-dimethylpyrimidine-2,4-diamine]
< 0.1 | < 0.1 | CNc1cc(C)nc(Nc2ccc(OC)c(OCC3CCN(C4CC4)C3)c2)n1 (stereo not shown) [Compound 457]
0.1 to 1 | 0.1 to 1 | CNc1cc(C2CCCC2)nc(Nc2ccc(OC)c(OCCCN3CCCC3)c2)n1 [Compound 458, 6-cyclopentyl-N^2-(4-methoxy-3-(3-(pyrrolidin-1-yl)propoxy)phenyl)-N^4-methylpyrimidine-2,4-diamine]
1 to 10 | 1 to 10 | CNc1cc(C2CCOCC2)nc(Nc2ccc(OC)c(OCCCN3CCCC3)c2)n1 [Compound 459, N^2-(4-methoxy-3-(3-(pyrrolidin-1-yl)propoxy)phenyl)-N^4-methyl-6-(tetrahydro-2H-pyran-4-yl)pyrimidine-2,4-diamine]
< 0.1 | < 0.1 | COc1cnc(Nc2nc(C)cc3[nH]ncc23)cc1OCCCN1CCCC1 [Compound 460, N-(5-methoxy-4-(3-(pyrrolidin-1-yl)propoxy)pyridine-2-yl)-6-methyl-1H-pyrazolo[4,3-c]pyridine-4-amine]
< 0.1 | < 0.1 | CNc1cc(C)nc(Nc2ccc(OC)c(OCC3CCN(CCO)C3)c2)n1 (stereo not shown) [Compound 461, 2-(3-((2-methoxy-5-((4-methyl-6-(methylamino)pyrimidin-2-yl)amino)phenoxy)methyl)pyrrolidin-1-yl)ethan-1-ol]
< 0.1 | < 0.1 | COc1ccc(Nc2nc(C)cc(NCC3CCOCC3)n2)cc1OCC1CCN(C2CC2)C1 (stereo not shown) [Compound 462, N^2-(3-((1-cyclopropylpyrrolidin-3-yl)methoxy)-4-methoxyphenyl)-6-methyl-N^4-((tetrahydro-2H-pyran-4-yl)methyl)pyrimidine-2,4-diamine]
< 0.1 | < 0.1 | CNc1cc(C)nc(Nc2ccc(OC)c(OCCCN(C)C3CC3)c2)n1 [Compound 463, N^2-(3-(3-(cyclopropyl(methyl)amino)propoxy)-4-methoxyphenyl)-N^4,6-dimethylpyrimidine-2,4-diamine]
0.1 to 1 | 0.1 to 1 | COc1cnc(Nc2cc(NCC3CCOCC3)cc(C)n2)cc1OCCCN1CCCC1 [Compound 464, N^2-(5-methoxy-4-(3-(pyrrolidin-1-yl)propoxy)pyridin-2-yl)-6-methyl-N^4-((tetrahydro-2H-pyran-4-yl)methyl)pyridine-2,4-diamine]
< 0.1 | < 0.1 | CNc1cc(C)nc(Nc2ccc(OC)c(OCCCN3CC(O)C3)c2)n1 [Compound 465, 1-(3-(2-methoxy-5-((4-methyl-6-(methylamino)pyrimidin-2-yl)amino)phenoxy)propyl)azetidin-3-ol]
> 10 | > 10 | CNc1cc(C)nc(Nc2ccc(OC)c(OC3CCN(C4CC4)CC3)c2)n1 [Compound 466, N^2-(3-((1-cyclopropylpiperidin-4-yl)oxy)-4-methoxyphenyl)-N^4,6-dimethylpyrimidine-2,4-diamine]
1 to 10 | 0.1 to 1 | CNc1cc(C)nc(Nc2ccc(OC)c(OC[C@H]3C[C@@H](N(C)C)C3)c2)n1 [Compound 468]
> 10 | 1 to 10 | CNc1cc(C)nc(Nc2ccc(OC)c(OC[C@H]3C[C@H](N(C)C)C3)c2)n1 [Compound 470]
1 to 10 | 1 to 10 | CCn1nc(Nc2nccc3[nH]ccc23)cc1COCCN1CCCC1 [Compound 471]
1 to 10 | 0.1 to 1 | CNc1cc(Nc2cc(OC[C@@H]3CCN(C)C3)c(OC)cn2)nc(C)n1 [Compound 473]

IC50 (human EHMT2 913-1193) [µM] | IC50 (EHMT1) [µM] | Compound
0.1 to 1 | < 0.1 | CNc1cc(C)nc(Nc2cc(OC[C@@H]3CCN(C)C3)c(OC)cn2)c1 [Compound 475]
0.1 to 1 | 0.1 to 1 | CNc1ccnc(Nc2ccc(OC)c(OC[C@@H]3CN(C)C[C@@H]3C)c2)n1 [Compound 477]
> 10 | > 10 | CNc1ccnc(Nc2ccc(OC)c(OCc3nnc(C4CC4)[nH]3)c2)n1 [Compound 478]
> 10 | > 10 | CNc1ccnc(Nc2ccc(OC)c(OCc3ncn(C4CC4)n3)c2)n1 [Compound 480]
< 0.1 | < 0.1 | CNc1cc(C(C)C)nc(Nc2ccc(OC)c(OCCCN3CCCC3)c2)n1 [Compound 483]
< 0.1 | < 0.1 | COc1cnc(Nc2nc(C)cc3[nH]c(C)cc23)cc1OCCCN1CCCC1 [Compound 485]
> 10 | > 10 | COc1ccc(Nc2nc(C)cc3[nH]ccc23)cc1OCCCN1CCCC1 [Compound 486]
1 to 10 | 0.1 to 1 | CNc1cc(C)nc(Nc2ccc(OC)c([C@H]3C[C@@H]3CN(C)C)c2)n1 [Compound 487]
0.1 to 1 | < 0.1 | CNc1cc(C)nc(Nc2ccc(OC)c([C@H]3C[C@H]3CN(C)C)c2)n1 [Compound 488]
1 to 10 | 0.1 to 1 | CNc1cc(C)nc(Nc2ccc(OC)c(OC(C#N)CCN3CCCC3)c2)n1 (stereo not shown) [Compound 489]
< 0.1 | < 0.1 | CNc1cc(C)nc(Nc2ccc(OC)c(OCCCN3CCC3)c2)n1 [Compound 490]
0.1 to 1 | < 0.1 | CNc1cc(C)nc(Nc2ccc(OC)c(OC[C@@H]3CN(C)C[C@H]3O)c2)n1 [Compound 491]
0.1 to 1 | < 0.1 | CNc1cc(C)nc(Nc2ccc(OC)c(OC[C@@H]3CN(C)C[C@@H]3O)c2)n1 [Compound 492]
< 0.1 | < 0.1 | COc1cnc(Nc2nc(C)cc3[nH]ccc23)cc1OCC1CCN(C2CC2)C1 (stereo not shown) [Compound 494]
0.1 to 1 | < 0.1 | COc1cnc(Nc2nc(C)cc3[nH]ccc23)cc1OC[C@H]1CCN(C2CC2)C1 [Compound 494a]
0.1 to 1 | < 0.1 | COc1cnc(Nc2nc(C)cc3[nH]ccc23)cc1OC[C@@H]1CCN(C2CC2)C1 [Compound 495]
1 to 10 | 0.1 to 1 | CNc1cc(C)nc(Nc2cc(Cl)c(OC)c(OCCCN3CCCC3)c2)n1 [Compound 496]
0.1 to 1 | 0.1 to 1 | CCc1ccc(Nc2nc(C)cc(NC)n2)cc1OCCCN1CCCC1 [Compound 497]
1 to 10 | 0.1 to 1 | CNc1cc(C)nc(Nc2ccc(OC)c(OCCCN3CCC4(CC4)C3)c2)n1 [Compound 498, N^2-(3-(3-(5-azaspiro[2.4]heptan-5-yl)propoxy)-4-methoxyphenyl)-N^4,6-dimethylpyrimidine-2,4-diamine]
